{"source": "patent US20120107916A1", "about": "“METHODS AND COMPOSITIONS FOR AFFECTING THE DIFFERENTIATION OF CLOSTRIDIA IN CULTURE” (priority 2009, published 2012)", "key": {"[1]": {"system": "C. acetobutylicum", "assay": "Estimate of extended serial propagation in continuous culture from sequential batch transfers", "set-up": "species or system Clostridium acetobutylicum", "conditions": "dilution rate 0.05/hour, from about 140 hours without peptide", "description": "Under these experimental conditions, and knowledge of the growth of C. acetobutylicum in culture, it was determined that each sequential transfer was equivalent to about seven bacterial generations ([…], Applied and Environmental Microbiology 59:4198-4202, 1993). […] An estimate of extended serial propagation in continuous culture may be expressed as extended time in continuous culture by taking the dilution rate into account. In continuous culture, the time for one generation is equal to the inverse of the dilution rate."}, "[2]": {"system": "Clostridium acetobutylicum ATCC 824", "assay": "Growth (optical density at 600 nm) of sequential batch cultures", "format": "cell-based", "description": "(§1) Bacterial strains and media. Clostridium acetobutylicum ATCC 824 and C. beijerinckii NCIMB 8052 are available from several commercial microbial culture collections including the American Type Culture Collection (ATCC), Manassas, Va., USA. The strains were grown at 30° C. or 37° C. in YE broth, which contained, per liter: 5.0 g yeast extract, 2.5 g casamino acids, 1.0 g L-asparagine, 0.5 g cysteine.HCl, 56 mg K2HPO4, 56 mg KH2PO4, 82 mg anhydrous MgSO4, 8 mg FeSO4.H2O, 6 mg MnSO4.H2O and 10 g glucose. Alternatively, strains were grown in YEPG broth, which was identical to YE expect that K2HPO4 and KH2PO4 were increased to 145 mg/L each and glucose was increased to 60 g/L. The pH of the media was adjusted to 7.2 using 45% KOH prior to sterilization by autoclaving. Media were solidified by addition of 1.5% Bacteriological Agar, Actimedia Manufacturers, Inc., Lansing, Mich. All cultures were grown in anaerobic conditions using the AnaeroPack System, Mitsubishi Gas Chemical Co., Inc., Japan, and GasPak EZ Gas Generating Sachets, Becton, Dickinson and Co., Sparks, Md. Spore stocks were kept at room temperature on agar-solidified media and were activated by suspending spores in 0.5 mL to 1.0 mL of medium followed by heating for 10 min at 80° C. before inoculation into growth medium.\n(§2) Growth and pH measurements. Growth of bacterial cultures was measured spectrophotometrically using optical density at 600 nm and pH of cell-free culture supernatants was measured using a hand-held Shindengen ISFET pH Meter KS501, Shendengen Electric Manufacturing Co., Ltd., Bannockburn, Ill.\n(§3) Effect of peptide SEQ ID NO:143 addition on sequential batch cultures of C. acetobutylicum ATCC 824 grown at 30° C. Spores of C. acetobutylicum ATCC 824 were germinated and grown overnight at 30° C. under anaerobic conditions in YEPG medium. After about 24 h of growth, 75 μL of the culture was transferred (transfer 1) to each of four flasks that contained 10 mL of YEPG and either had no treatment or were treated with peptide SEQ ID NO:143 (see Table 8 and FIG. 1) at 1 nM, 10 nM or 50 nM. Thereafter, 75 μL of each culture was transferred, at the same time, every 24-48 h to 10 mL of fresh YEPG that contained the same peptide treatment or no treatment. Each culture was stopped after 96 hours of incubation and optical density, pH and ceric ion reactive chemicals were measured. Sequential batch culturing was continued through 5 transfers at which point the untreated culture and those treated with 1 nM and 10 nM of peptide SEQ ID NO:143 had stopped growing (Table 9).\n(§4) Effect of peptide SEQ ID NO:143 addition on sequential batch cultures of C. acetobutylicum ATCC 824 grown at 37° C. Spores of C. acetobutylicum ATCC 824 were germinated and grown overnight at 37° C. under anaerobic conditions in YEPG medium that either contained 50 nM of peptide SEQ ID NO:143 or no added peptide. After about 24 h of growth, 10 μL of the untreated culture was transferred (transfer 1) to each of two flasks that contained 10 mL of YEPG with either no treatment or with 50 nM peptide SEQ ID NO:143. At the same time, 10 μL of the culture that was germinated in the presence of peptide SEQ ID NO:143 was also transferred to 10 mL of YEPG that contained 50 nM of peptide SEQ ID NO:143. Thereafter, 10 μL of each culture was transferred, at the same time, every 24-48 h to 10 mL of fresh YEPG that contained the same peptide treatment or no treatment. Each culture was stopped after 72 hours if incubation and optical density, pH and ceric ion reactive chemicals were measured. Sequential batch culturing was continued through 3 transfers at which point the untreated culture and the culture that was germinated and transferred in 50 nM of peptide were still growing, while the culture that was treated with peptide after germination had stopped growing (Table 15 and FIG. 7)."}, "[3]": {"system": "Clostridium acetobutylicum ATCC 824", "assay": "Final pH of cell-free culture supernatants of sequential batch cultures", "format": "cell-based", "description": "as §1, §2, §3, §4"}, "[4]": {"conditions": "1 nM peptide, transfer 1, 96 h, 30° C."}, "[5]": {"conditions": "1 nM peptide, transfer 2, 96 h, 30° C."}, "[6]": {"conditions": "1 nM peptide, transfer 3, 96 h, 30° C."}, "[7]": {"conditions": "1 nM peptide, transfer 4, 96 h, 30° C."}, "[8]": {"conditions": "1 nM peptide, transfer 5, 96 h, 30° C."}, "[9]": {"conditions": "10 nM peptide, transfer 1, 96 h, 30° C."}, "[10]": {"conditions": "10 nM peptide, transfer 2, 96 h, 30° C."}, "[11]": {"conditions": "10 nM peptide, transfer 3, 96 h, 30° C."}, "[12]": {"conditions": "10 nM peptide, transfer 4, 96 h, 30° C."}, "[13]": {"conditions": "50 nM peptide added after germination, transfer 1, 72 h, 37° C."}, "[14]": {"conditions": "50 nM peptide added after germination, transfer 2, 72 h, 37° C."}, "[15]": {"conditions": "50 nM peptide added after germination, transfer 3, 72 h, 37° C."}, "[16]": {"conditions": "50 nM peptide, transfer 1, 96 h, 30° C."}, "[17]": {"conditions": "50 nM peptide, transfer 2, 96 h, 30° C."}, "[18]": {"conditions": "50 nM peptide, transfer 3, 96 h, 30° C."}, "[19]": {"conditions": "50 nM peptide, transfer 4, 96 h, 30° C."}, "[20]": {"conditions": "50-50: germinated and transferred in 50 nM peptide, transfer 1, 72 h, 37° C."}, "[21]": {"conditions": "50-50: germinated and transferred in 50 nM peptide, transfer 2, 72 h, 37° C."}, "[22]": {"conditions": "50-50: germinated and transferred in 50 nM peptide, transfer 3, 72 h, 37° C."}, "[23]": {"conditions": "50-50: spores germinated in 50 nM peptide, transfer 0 (germinated culture), 72 h, 37° C."}}, "data": [{"substance": "SYPGWSW [Peptide SEQ ID NO:143]", "values": [{"measurement": "Expected time in continuous culture with peptide", "setting": "[1]", "result": "about 700 hours"}, {"measurement": "Last sequential transfer through which growth was allowed", "setting": "[2]; 1 nM peptide, 30° C., untreated culture did not grow after the second transfer", "result": "third transfer"}, {"measurement": "Optical density at 600 nm of culture broths", "setting": "[2]; [4]", "result": 0.005}, {"measurement": "Optical density at 600 nm of culture broths", "setting": "[2]; [5]", "result": 2.274}, {"measurement": "Optical density at 600 nm of culture broths", "setting": "[2]; [6]", "result": 2.165}, {"measurement": "Optical density at 600 nm of culture broths", "setting": "[2]; [7]", "result": 0.044}, {"measurement": "Optical density at 600 nm of culture broths", "setting": "[2]; [8]", "result": 0.004}, {"measurement": "Last sequential transfer through which growth was allowed", "setting": "[2]; 10 nM peptide, 30° C.", "result": "fourth transfer"}, {"measurement": "Optical density at 600 nm of culture broths", "setting": "[2]; [9]", "result": 2.001}, {"measurement": "Optical density at 600 nm of culture broths", "setting": "[2]; [10]", "result": 2.245}, {"measurement": "Optical density at 600 nm of culture broths", "setting": "[2]; [11]", "result": 2.379}, {"measurement": "Optical density at 600 nm of culture broths", "setting": "[2]; [12]", "result": 2.266}, {"measurement": "Optical density at 600 nm of culture broths", "setting": "[2]; 10 nM peptide, transfer 5, 96 h, 30° C.", "result": 0.028}, {"measurement": "Optical density at 600 nm of culture broths", "setting": "[2]; [13]", "result": 1.891}, {"measurement": "Optical density at 600 nm of culture broths", "setting": "[2]; [14]", "result": 0.011}, {"measurement": "Optical density at 600 nm of culture broths", "setting": "[2]; [15]", "result": 0.100}, {"measurement": "Last sequential transfer through which growth was extended", "setting": "[2]; 50 nM peptide, 30° C.", "result": "fifth transfer"}, {"measurement": "Optical density at 600 nm of culture broths", "setting": "[2]; [16]", "result": 1.879}, {"measurement": "Optical density at 600 nm of culture broths", "setting": "[2]; [17]", "result": 2.089}, {"measurement": "Optical density at 600 nm of culture broths", "setting": "[2]; [18]", "result": 2.313}, {"measurement": "Optical density at 600 nm of culture broths", "setting": "[2]; [19]", "result": 2.187}, {"measurement": "Optical density at 600 nm of culture broths", "setting": "[2]; 50 nM peptide, transfer 5, 96 h, 30° C.", "result": 2.173}, {"measurement": "Number of sequential transfers compared with a culture without added peptide", "setting": "[2]; 30° C., sequential batch cultures", "result": "at least four more times"}, {"measurement": "Optical density at 600 nm of culture broths", "setting": "[2]; [20]", "result": 1.715}, {"measurement": "Optical density at 600 nm of culture broths", "setting": "[2]; [21]", "result": 1.858}, {"measurement": "Optical density at 600 nm of culture broths", "setting": "[2]; [22]", "result": 1.485}, {"measurement": "Optical density at 600 nm of culture broths", "setting": "[2]; [23]", "result": 2.121}, {"measurement": "Final pH of culture broths", "setting": "[3]; [4]", "result": 6.0}, {"measurement": "Final pH of culture broths", "setting": "[3]; [5]", "result": 4.4}, {"measurement": "Final pH of culture broths", "setting": "[3]; [6]", "result": 4.4}, {"measurement": "Final pH of culture broths", "setting": "[3]; [7]", "result": 6.0}, {"measurement": "Final pH of culture broths", "setting": "[3]; [8]", "result": 6.0}, {"measurement": "Final pH of culture broths", "setting": "[3]; [9]", "result": 4.4}, {"measurement": "Final pH of culture broths", "setting": "[3]; [10]", "result": 4.4}, {"measurement": "Final pH of culture broths", "setting": "[3]; [11]", "result": 4.5}, {"measurement": "Final pH of culture broths", "setting": "[3]; [12]", "result": 4.5}, {"measurement": "Final pH of culture broths", "setting": "[3]; 10 nM peptide, transfer 5, 96 h, 30° C., listed as SEQ ID NO: 143", "result": 6.0}, {"measurement": "Final pH of culture broths", "setting": "[3]; 10 nM peptide, transfer 5, 96 h, 30° C., listed as SEQ ID NO:143", "result": 5.9}, {"measurement": "Final pH of culture broths", "setting": "[3]; [13]", "result": 4.4}, {"measurement": "Final pH of culture broths", "setting": "[3]; [14]", "result": 6.0}, {"measurement": "Final pH of culture broths", "setting": "[3]; [15]", "result": 5.5}, {"measurement": "Final pH of culture broths", "setting": "[3]; [16]", "result": 4.4}, {"measurement": "Final pH of culture broths", "setting": "[3]; [17]", "result": 4.6}, {"measurement": "Final pH of culture broths", "setting": "[3]; [18]", "result": 4.5}, {"measurement": "Final pH of culture broths", "setting": "[3]; [19]", "result": 4.4}, {"measurement": "Final pH of culture broths", "setting": "[3]; 50 nM peptide, transfer 5, 96 h, 30° C., listed as SEQ ID NO: 143", "result": 4.3}, {"measurement": "Final pH of culture broths", "setting": "[3]; 50 nM peptide, transfer 5, 96 h, 30° C., listed as SEQ ID NO:143", "result": "remained low"}, {"measurement": "Final pH of culture broths", "setting": "[3]; [20]", "result": 4.5}, {"measurement": "Final pH of culture broths", "setting": "[3]; [21]", "result": 3.8}, {"measurement": "Final pH of culture broths", "setting": "[3]; [22]", "result": 4.6}, {"measurement": "Final pH of culture broths", "setting": "[3]; [23]", "result": 4.1}]}]}
